According to patent US9486440B2, “Uses of indole-ketones or indolidones as neuro-protective drugs” (UNIVERSITY OF MACAU, priority 2011, dated 2016):
“Also recorded” adds a separate entry of the source.

Experiments:
[1] = system: CGNs; test: FDA/PI double staining of CGNs after low potassium; assay type: cell-based; conditions: 1.5 μM, 24 hours
Protocol: (§1) Cell viability was measured by MTT assay at 24 hours after low potassium challenge. […] After 24 hours of low potassium challenge, CGNs were assayed with an FDA/PI double staining. […] After 24 hours of low potassium challenge, CGNs were assayed with Hoechst staining. The number of apoptotic nuclei with condensed chromatin were counted from representative Hoechst staining photomicrographs and represented as a percentage of the total number of nuclei counted. […] Intracellular NO level was measured using DAF-FM diacetate as a probe at 4 hour after low potassium challenge. Data, expressed as percentage of control (CGNs were cultured in high potassium medium), were the mean±SEM of three separate experiments; *p<0.05 and **p<0.01 versus low potassium group in (A) and (D) or versus control in (C); ^##p<0.01 versus low potassium group in (C) (Turkey's test).
(§2) The neurons were examined by FDA/PI double staining.

[2] = cited from earlier work
[3] = system: SH-SY5Y cells; test: MPP+-induced neurotoxicity in SH-SY5Y cells, MTT assay; assay type: cell-based, human; conditions: for MPP+-induced neuronal death in SH-SY5Y cells (MTT): pre-treatment 2 hours, then 1 mM MPP+ for 24 hours
Protocol: The human neuroblastoma SH-SY5Y cells were obtained from ATCC. The cells were maintained in supplemented Dulbecco's modified eagle medium (DMEM), 10% fetal bovine serum, 100 U/ml penicillin, and 100 μg/ml streptomycin in a 37° C., 5% CO2 incubator. PC12 pheochromocytoma cells were also obtained from ATCC. The cells were cultured in medium that consisted of DMEM, 10% heat-inactivated horse serum, 5% fetal bovine serum, 100 U/ml penicillin, and 100 μg/ml streptomycin in a 37° C., 5% CO2 incubator. All experiments were carried out 48 hours after the cells were seeded. […] The assay was performed according to the specifications of the manufacturer (MTT kit I; Roche Applied Science). […] After the incubation, 100 μl of the solvating solution (0.01 N HCl in 10% SDS solution) was added to each well for 16-20 hours. Absorbance of the samples was measured at a wavelength of 570 nm with 655 nm as a reference wavelength. Unless otherwise indicated, the extent of MTT conversion in cells exposed to MPP^+ is expressed as a percentage of the control.

[4] = daily oral administration; cited from earlier work
[5] = biological target: eNOS (Homo sapiens, UniProt P29474); test: In vitro NOS activity assay of Example 3, eNOS; assay type: biochemical; conditions: 100 μM; data not shown
[6] = system: CGNs; test: Low potassium-induced cell death in CGNs, MTT assay; assay type: cell-based; conditions: 5 mM KCl BME medium, 24 hours; sunitinib 0.1-2 μM
Protocol: as §1
It was previously reported that low potassium could induce typical apoptosis in cerebellar granule neurons (CGNs) (Fu et al., 2008). […] Cell viability was measured with an MTT assay 24 hours after the low potassium treatment.

[7] = system: intracellular NO; test: Intracellular NO in CGNs after low potassium; assay type: cell-based; conditions: 1.5 μM, 4 hour after low potassium challenge
Protocol: as §1

[8] = system: intracellular NO; test: Intracellular NO in SH-SY5Y cells after MPP+; assay type: cell-based, human; conditions: 0.3 μM 2 hours, then 1 mM MPP+ 24 hours
Protocol: Cell viability was measured by the MTT assay at 24 hours after MPP^+ challenge. […] Intracellular NO level was measured using DAF-FM diacetate as a probe at 24 hour after MPP^+ challenge. Data, expressed as percentage of control, were the mean±SEM of three separate experiments; *p<0.05 and **p<0.01 versus MPP^+ group (ANOVA and Dunnett's test).
DAF-FM diacetate was also used to evaluate the intracellular NO level in this model.

[9] = system: nNOS knockdown SH-SY5Y cells; test: MPP+ in ShRNA-mediated nNOS knockdown SH-SY5Y cells; assay type: cell-based, human; conditions: 0.3 μM 2 hours, then 1 mM MPP+ 24 hours
Protocol: (A) SH-SY5Y cells were transfected with pG418-GFP plasmid (vector), pG418-GFP plasmid encoding nNOS ShRNA (ShnNOS) and pG418-GFP plasmid encoding negative control ShRNA (ShNC). The level of nNOS and β-actin in the cell lysates were analyzed by Western blotting assay by using specific antibodies. […] Cell viability was measured at 24 hours after MPP^+ challenge by MTT assays. Data were the mean±SEM of three separate experiments; **p<0.01 versus control; ^##p<0.01 versus MPP^+ group; ^&p<0.05 versus MPP^+ vector group (Turkey's test).

[10] = biological target: T1, iNOS (Homo sapiens, UniProt P35228); test: In vitro NOS activity assay of Example 3, iNOS; assay type: biochemical; conditions: 100 μM; data not shown
[11] = biological target: T2, rat cerebellum nNOS (Rattus norvegicus, UniProt P29476); test: In vitro nNOS activity assay, rat cerebellum nNOS; assay type: biochemical
T2 construct: purchased Calbiochem
Protocol: Rat cerebellum nNOS was from Calbiochem. NOS activity was determined by monitoring the conversion of L-[3H]arginine to [3H]citrulline following the instructions provided by the kit (Calbiochem). The reaction mixture contained a final volume of 40 μl with 25 mM Tris-Cl at pH 7.4, 3 μM tetrahydrobiopterin, 1 μM FAD, 1 μM FMN, 1 mM NADPH, 0.6 mM CaCl2, 0.1 μM calmodulin, 2.5 μg of pure NOS enzyme, 5 μl L-[3H]arginine (Perkin Elmer, Waltham, Mass., USA), and different concentrations of the tested reagents. The reaction mixture was incubated at 22° C. for 45 min. The reaction was quenched by adding 400 μl of stopping buffer (50 mM HEPES, pH 5.5, and 5 mM EDTA). Unreacted L-[3H]arginine was then trapped by 100 μl of equilibrated resin in a spin cup followed by centrifugation at 13,200 rpm for 30 s.

[12] = system: CGNs; test: Hoechst 33342 staining of CGNs after low potassium; assay type: cell-based; conditions: 1.5 μM, 24 hours
Protocol: as §1, §2

[13] = system: SH-SY5Y cells; conditions: sustained (3 days) treatment, >1 μM; cited from earlier work
[14] = system: CGNs; test: MPP+-induced neurotoxicity in CGNs, MTT and LDH assays; assay type: cell-based, rat
Protocol: (§3) All animal experiments were conducted according to the ethical guidelines of ICMS, Macau University and the Animal Care Facility, The Hong Kong Polytechnic University. Rat CGNs were prepared from 8-day-old Sprague-Dawley rats (The Animal Care Facility, The Hong Kong Polytechnic University) as described by Li et al., 2005. Briefly, neurons were seeded at a density of 2.7×10^5 cells/ml in basal modified Eagle's medium (Invitrogen) containing 10% fetal bovine serum, 25 mM KCl, 2 mM glutamine, and penicillin (100 units/ml)/streptomycin (100 μg/ml). Cytosine arabinoside (10 μM) was added to the culture medium 24 hour after plating to limit the growth of non-neuronal cells. With the use of this protocol, more than 95% of the cultured cells were granule neurons.
(§4) The percentage of surviving neurons in the presence of SU4312 and/or MPP^+ was estimated by determining the activity of mitochondrial dehydrogenases with 3(4,5-dimethylthiazol-2-yl)-2.5-diphenyltetrazolium bromide (MTT) assay (Li et al., 2007). The assay was performed according to the specifications of the manufacturer (MTT kit I; Roche Applied Science). Briefly, the neurons were cultured in 96-well plates, 10 μl of 5 mg/ml MTT labeling reagent was added to each well containing cells in 100 μl of medium, and the plates were incubated for 4 hours in a humidified incubator at 37° C. After the incubation, 100 μl of the solvating solution (0.01 N HCl in 10% SDS solution) was added to each well for 16-20 hours. Absorbance of the samples was measured at a wavelength of 570 nm with 655 nm as a reference wavelength. Unless otherwise indicated, the extent of MTT conversion in cells exposed to MPP^+ is expressed as a percentage of the control.
Cytotoxicity was determined by measuring the release of lactate dehydrogenase (LDH). Briefly, cells were precipitated by centrifugation at 500 g for 5 min at room temperature, 50 μl of the supernatants was transferred into new wells, and LDH was determined using the in vitro toxicology assay kit (Roche). The absorbance of the samples was measured at a wavelength of 490 nm with 655 nm as a reference wavelength.
as §3, with “Rat” for “All animal experiments were conducted according to the ethical guidelines of ICMS, Macau University and the Animal Care Facility, The Hong Kong Polytechnic University. Rat”, “hours” for “hour”
as §4, with “The” for “The percentage of surviving neurons in the presence of SU4312 and/or MPP^+ was estimated by determining the activity of mitochondrial dehydrogenases with 3(4,5-dimethylthiazol-2-yl)-2.5-diphenyltetrazolium bromide (MTT) assay (Li et al., 2007). The”, “incubated at 37° C.” for “incubated”, “incubator.” for “incubator at 37° C.”, “The absorbance” for “Absorbance”

[15] = system: CGNs; conditions: VEGF 10-300 ng/ml; cited from earlier work
[16] = biological target: T1, iNOS; conditions: cited from earlier work
[17] = biological target: nNOS (Homo sapiens, UniProt P29475); conditions: cited from earlier work
[18] = system: intracellular NO; test: Intracellular NO in CGNs after MPP+ (DAF-FM diacetate); assay type: cell-based, rat; conditions: pre-treatment 2 hours, 35 μM MPP+, 24 hours; SU4312 3-30 μM, 7-NI 3-10 μM
Protocol: (§5) Intracellular NO was monitored with 4-Amino-5-methylamino-2′,7′-difluorofluorescein (DAF-FM) diacetate, a pH-insensitive fluorescent dye that emits increased fluorescence after reaction with an active intermediate of NO formed during the spontaneous oxidation of NO to NO2 (Sheng et al., 2005). DAF-FM solution was added to the culture medium (final concentration: 5 μM). After 30 min in a CO2 incubator, cultures were washed twice with PBS and incubated for an additional 30 min to allow complete de-esterification of the intracellular diacetate for stronger fluorescence. The DAF-FM fluorescence in CGNs was quantified by a multi-detection microplate reader using excitation and emission wavelengths of 495 nm and 515 nm, respectively. The measured fluorescence values were expressed as a percentage of the fluorescence in the control cells.
as §5, with “(4-amino-5-methylamino-2′,7′-difluorofluorescein) DAF-FM” for “4-Amino-5-methylamino-2′,7′-difluorofluorescein (DAF-FM)”, “After incubation for” for “After”, “another” for “an additional”, “strong” for “stronger”

For `CCN(CC)CCNC(=O)c1c(C)[nH]c(/C=C2\C(=O)Nc3ccc(F)cc32)c1C` [Sunitinib, N-(2-diethylaminoethyl)-5-[(Z)-(5-fluoro-2-oxo-1H-indol-3-ylidene)methyl]-2,4-dimethyl-1H-pyrrole-3-carboxamide], the “loss of neurons and morphological alteration induced by low potassium (FDA/PI)” value [1] is listed as “significantly blocked the loss of neurons and reversed the morphological alteration”, the “sunitinib still accumulated in the brain” value ([2]; 60 min following administration) is listed as 25% and the “sunitinib retained in the brain” value ([2]; 6 hour after oral administration) is listed as 60 ng/mL. For the same molecule, the “cell proliferative or cytotoxic effects of the drug alone, SH-SY5Y cells” value [3] was “did not show cell proliferative or cytotoxic effects”, the “toxicity to SH-SY5Y cells at higher concentration” value ([3]; higher concentration (sunitinib 1 μM), data not shown) was “at higher concentration (1 μM) showed toxicity to SH-SY5Y cells” and the “MPP+-induced neuronal death in SH-SY5Y cells (MTT)” value [3] was “prevented MPP^+-induced neuronal death at 0.1-0.3 μM”. The “human plasma steady-state level” value [4] was 50 to 100 ng/mL, the “inhibitory activity against eNOS” value [5] was “showed no inhibitory activity against iNOS or eNOS” and the “low potassium-induced cell death (MTT)” value [6] was “unexpectedly prevented low potassium-induced cell death in CGNs in a concentration-dependent manner”. The “low potassium-stimulated NO production” value [7] was “antagonized the stimulatory effect of low potassium on the NO production”, the “MPP+-triggered elevation of intracellular NO level in SH-SY5Y cells” value [8] was “attenuated MPP^+-triggered elevation of intracellular NO level” and the “MPP+-induced cell death in nNOS knockdown SH-SY5Y cells (MTT)” value [9] was “did not significantly inhibit MPP^+-induced cell death”. For the same molecule, the “inhibitory activity against iNOS” value [10] was “showed no inhibitory activity against iNOS or eNOS”, the IC50 [11] was 9.6 µM and the “neuronal apoptosis induced by low potassium (Hoechst 33342)” value [12] was “significantly reversed neuronal apoptosis induced by low potassium”. The “proliferation of SH-SY5Y cells (previous studies)” value [13] was “could reduce the proliferation of SH-SY5Y cells” and the “cell proliferative or cytotoxic effects of the drug alone” value [14] was “did not show cell proliferative or cytotoxic effects”.

In the case of VEGF, the “MPP+-induced neurotoxicity in CGNs (earlier study)” value [15] is given as “protected neurons against MPP^+-induced neurotoxicity”.

For `O=[N+]([O-])c1cccc2cn[nH]c12` [7-nitroindazole], the IC50 [16] is listed as 20 µM, the IC50 [17] is listed as 0.7 µM and the “MPP+-induced neuronal death in SH-SY5Y cells (MTT)” value [3] is listed as “at 5-10 μM prevented MPP^+-induced neuronal death”. The “MPP+-induced elevation of intracellular NO level” value [18] was “inhibited neuronal death and elevated level of intracellular NO induced by MPP^+” and the “MPP+-induced cell death (cell viability, MTT and LDH assays)” value ([14]; pre-treatment 2 hours, then 35 μM MPP+ for 24 hours) was “inhibited neuronal death; also recorded: protected against neuronal apoptosis”.
